PMC12041489 (Scientific Reports, 2025)
Entries after “also recorded” stand apart in the source; their conditions may differ.

Legend:
fresh-cut apples = test: Anti-browning experiment on fresh-cut apples; parameters: species or system Fuji apples; details: stored at 5 °C for 4 days
[1] = ABTS radical cation scavenging activity assay; details: read-out: ABTS radical scavenging IC50
[2] = tested on: human umbilical vein endothelial cells (HUVEC); test: MTT assay for cell viability; assay type: cell-based; details: 24-h treatment, up to 32 µM
mushroom tyrosinase [3] = target: T1, mushroom tyrosinase (Agaricus bisporus, UniProt C7FF04); test: biochemical
[4] = DPPH free radical scavenging activity assay; details: read-out: DPPH radical scavenging IC50
mushroom tyrosinase [5] = target: T1, mushroom tyrosinase; test: Tyrosinase kinetic analysis; assay type: biochemical
tyrosinase = tyrosinase (Agaricus bisporus, UniProt C7FF04); test: Fluorescence quenching of tyrosinase; assay type: binding, mushroom; details: for Kq / Ksv: λex 280 nm
Chain of tyrosinase (C7FF04 1-392 limits assumed): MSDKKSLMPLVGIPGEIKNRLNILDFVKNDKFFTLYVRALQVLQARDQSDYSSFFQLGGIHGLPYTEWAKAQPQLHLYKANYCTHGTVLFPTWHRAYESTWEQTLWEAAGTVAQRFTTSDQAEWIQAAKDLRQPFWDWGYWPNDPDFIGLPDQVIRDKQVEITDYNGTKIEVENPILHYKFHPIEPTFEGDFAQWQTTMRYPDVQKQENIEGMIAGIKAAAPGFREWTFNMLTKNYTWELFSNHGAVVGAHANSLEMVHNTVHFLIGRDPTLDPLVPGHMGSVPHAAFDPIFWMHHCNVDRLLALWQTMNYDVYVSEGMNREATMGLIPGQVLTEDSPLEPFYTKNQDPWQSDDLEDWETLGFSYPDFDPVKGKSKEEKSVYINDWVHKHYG

T1 sequence (C7FF04 1-392 limits assumed): as above

## COc1ccc(C(C)=O)c(OCc2cn(Cc3cc(=O)c(O)co3)nn2)c1 [Compound 13t, 2-((4-((2-acetyl-5-methoxyphenoxy)methyl)-1H-1,2,3-triazol-1-yl)methyl)-5-hydroxy-4H-pyran-4-one]
fresh-cut apples; 25 µM
  L* value of fresh-cut apples: 65.91
fresh-cut apples; 50 µM
  L* value of fresh-cut apples: 66.59
fresh-cut apples; 100 µM
  L* value of fresh-cut apples: 67.87
[1]
  IC50: 45.64 ± 0.25 µM
[2]
  toxicity to HUVEC (cell viability): no discernible toxicity; also recorded: no evident toxicity
Mushroom tyrosinase [3]
  IC50: 1.363 ± 0.003 µM
[4]
  IC50: 57.9 ± 0.28 µM
Mushroom tyrosinase [5]
  Ki: 0.365 µM
Mushroom tyrosinase [5]; Lineweaver–Burk double reciprocal plots
  inhibition type: mixed-type inhibitor
tyrosinase; Stern-Volmer plots at 298, 303 and 310 K
  predominant quenching mechanism: dynamic quenching
tyrosinase; T 298 K
  Kq: 1.952e+12 M⁻¹ s⁻¹
  Ksv: 0.01952 L/µmol
tyrosinase; T 303 K
  Kq: 2.478e+12 M⁻¹ s⁻¹
  Ksv: 0.02478 L/µmol
tyrosinase; T 310 K
  Kq: 2.823e+12 M⁻¹ s⁻¹
  Ksv: 0.02823 L/µmol
